In patent US9074289B2, “Environmentally friendly corrosion inhibitor” (NALCO COMPANY, priority 2011, dated 2015):

Experiments:
[1] = Log Pow (octanol-water partition coefficient), OECD 117; format: physicochemical; details: n-octanol/water; Method: OECD 117
Text: The bioaccumulation potential of chemical substances has generally been determined from the n-octanol/water partition coefficient (expressed as log Pow) and the bioconcentration factor. The log Pow represents the ratio of a material that dissolves or disperses in octanol (the oil phase) versus water. This coefficient is used as a chemical surrogate for bioaccumulative potential. A log Pow of less than ten is preferred, a log Pow of less than six is more preferred, and a log Pow of less than three is most preferred.
(§1) (i) acute toxicity to the most sensitive marine species (skeletonema costatum) must be greater than EC50 of 10 mg/L; (ii) bioaccumulation potential (as indicated by Log Pow, the octanol-water partition coefficient) must be below 3 or the molecular weight must be greater than 700; and (iii) biodegradation in 28 days is greater than 60%. Corrosion inhibitor intermediates such as the quaternary ammonium salt were tested for their level of acute aquatic toxicity (Table 9), Log Pow (Table 10), and their ability to biodegrade in 28 days (Table 10).

Skeletonema costatum = assay: Acute aquatic toxicity, ISO 10253; format: in vivo; details: Hec50, 72 h, Method: ISO 10253
Experimental: as §1

[2] = Acute aquatic toxicity, ISO 146669; details: Acartia tonsa, in vivo, Method: ISO 146669
Experimental: as §1

Corophium volutator = assay: Acute aquatic toxicity, PARCOM; format: in vivo; details: Method: PARCOM
Experimental: as §1

[3] = Biodegradation in 28 days, Marine BODIS; details: Method: Marine BODIS
Text: Biodegradation is the chemical breakdown of a material by microorganisms into nutrients that can be used by other organisms. Generally, a complex molecule can be broken down into carbon dioxide, water, microbial biomass, and/or inorganic salts. A biodegradation of 10% or greater is preferred, biodegradation of 20% or greater is more preferred, and a biodegradation of 60% or greater is most preferred.
as §1

Row | Structure (SMILES) | chromatographic logP [1] | EC50 (Skeletonema costatum) [µg/mL] | LC50 at 48 h [2] [µg/mL] | Corophium volutator 10 d LC50 (Corophium volutator) [mg/kg] | Biodegradation (28 days) [3] [%^7]
1 | CCOC(=O)c1cc[n+](Cc2cccc3ccccc23)cc1.[Cl-] [Compound 1] | 2.7 | > 10 | – | – | –
2 | NC(=O)c1ccc[n+](Cc2cccc3ccccc23)c1.[Cl-] [Compound 4] | 2.1 | – | 105 | 6116.15 | 40
